Like-named read-outs stand apart in the source and are kept apart here.

We go through 28 compounds from patent publication US20190297887A1, “BICYCLIC COMPOUNDS AS PESTICIDES” (Bayer CropScience Aktiengesellschaft, priority 2016, published 2019).

Series [1] concerns southern root-knot nematode (Meloidogyne incognita). Description: Meloidogyne incognita test. It counts as in vivo. The settings on record: application rate 20 ppm; after 14 days; lettuce in sand; 100% = no galls. How it is done:
Meloidogyne incognita Test Solvent: 125.0 parts by weight of acetone To produce a suitable active ingredient formulation, 1 part by weight of active ingredient is mixed with the stated amount of solvent and the concentrate is diluted to the desired concentration with water. Vessels are filled with sand, active ingredient solution, an egg/larvae suspension of the southern root-knot nematode (Meloidogyne incognita) and lettuce seeds. The lettuce seeds germinate and the plants develop. The galls develop on the roots. After 14 days, the nematicidal efficacy in % is determined by the formation of galls. 100% means that no galls were found; 0% means that the number of galls on the treated plants corresponds to the untreated control.

The subject of series [2] is green peach aphid (Myzus persicae). Description: Myzus persicae - spray test. It counts as in vivo. The settings on record: foliar, application rate 500 g/ha, after 5-6 days, sprayed Chinese cabbage leaf discs, read-out: efficacy in % (aphids killed). How it is done:
Myzus persicae—Spray Test Solvent: 78 parts by weight of acetone • • 1.5 parts by weight of dimethylformamide Emulsifier: alkylaryl polyglycol ether To produce a suitable active ingredient formulation, 1 part by weight of active ingredient is dissolved with the specified parts by weight of solvent and made up to the desired concentration with water containing an emulsifier concentration of 1000 ppm. To produce further test concentrations, the formulation is diluted with emulsifier-containing water. Discs of Chinese cabbage leaves (Brassica pekinensis) infested by all stages of the green peach aphid (Myzus persicae) are sprayed with an active ingredient formulation of the desired concentration. After 5-6 days, the efficacy in % is determined. 100% means that all the aphids have been killed; 0% means that no aphids have been killed.

The subject of series [3] is green peach aphids (Myzus persicae). Description: Myzus persicae - oral test. The settings on record: 120 h, application rate 4 ppm, after 5 days, oral uptake from microtitre plate, read-out: efficacy in % (aphids killed). It counts as in vivo. How it is done: Myzus persicae—Oral Test Solvent: 100 parts by weight of acetone To produce a suitable active ingredient formulation, 1 part by weight of active ingredient is dissolved with the stated parts by weight of solvent and made up to the desired concentration with water. 50 μl of the active ingredient formulation are transferred into microtitre plates and made up to a final volume of 200 μl with 150 μl of IPL41 insect medium (33%+15% sugar). Subsequently, the plates are sealed with parafilm, which a mixed population of green peach aphids (Myzus persicae) within a second microtitre plate is able to puncture and imbibe the solution. After 5 days, the efficacy in % is determined. 100% means that all the aphids have been killed; 0% means that no aphids have been killed.

The nature of series [4]: log P determination by HPLC on reversed-phase columns (OECD Guideline 117). It counts as physicochemical. The settings on record: reversed-phase (C18) HPLC column. How it is done: The log P values were determined in accordance with OECD Guideline 117 (EC Directive 92/69/EEC) by HPLC (high-performance liquid chromatography) using reversed-phase (RP) columns (C18), by the following methods: [a] The LC-MS determination in the acidic range is carried out at pH 2.7 with 0.1% aqueous formic acid and acetonitrile (contains 0.1% formic acid) as eluents; linear gradient from 10% acetonitrile to 95% acetonitrile. [b] LC-MS determination in the neutral range is carried out at pH 7.8 with 0.001 molar aqueous ammonium hydrogencarbonate solution and acetonitrile as eluents; linear gradient from 10% acetonitrile to 95% acetonitrile. Calibration is effected using unbranched alkan-2-ones (having 3 to 16 carbon atoms) with known log P values (log P values determined on the basis of the retention times by linear interpolation between two successive alkanones).

Series [5] deals with larvae of the mustard beetle (Phaedon cochleariae). Description: Phaedon cochleariae - spray test. It counts as in vivo. The settings on record: application rate 500 g/ha; after 7 days; sprayed Chinese cabbage leaf discs. How it is done: Phaedon cochleariae—Spray Test
Solvent: 78.0 parts by weight of acetone • • 1.5 parts by weight of dimethylformamide
Emulsifier: alkylaryl polyglycol ether
To produce a suitable active ingredient formulation, 1 part by weight of active ingredient is dissolved with the specified parts by weight of solvent and made up to the desired concentration with water containing an emulsifier concentration of 1000 ppm. To produce further test concentrations, the formulation is diluted with emulsifier-containing water.
Discs of Chinese cabbage leaves (Brassica pekinensis) are sprayed with an active compound formulation of the desired concentration and, after drying, populated with larvae of the mustard beetle (Phaedon cochleariae).
After 7 days, the efficacy in % is determined. 100% means that all the beetle larvae have been killed; 0% means that no beetle larvae have been killed.

The mark [6] stands for this setting: acidic range, pH 2.7, 0.1% aqueous formic acid/acetonitrile, read-out: log P(HCOOH).
The mark [7] stands for this setting: neutral range, pH 7.8, 0.001 molar aqueous ammonium hydrogencarbonate/acetonitrile, read-out: log P(neutral).

As to `Cn1c(=O)n(C)n(-c2ccc3nn(-c4cccnc4)cc3c2)c1=O` [Example 1, 1,4-Dimethyl-2-[2-(pyridin-3-yl)-2H-indazol-5-yl]-1,2,4-triazolidine-3,5-dione], in series [1], the “nematicidal efficacy in % (formation of galls)” value is on record as 90%. For the same compound, the pest or weed control at 500 g/ha in series [2] stood at 90%. In addition, in series [3], the pest or weed control at 4 ppm was determined as 100%. Also, the chromatographic logP in series [4] (setting [6]) worked out at 1.24; in series [4] (setting [7]), 1.31.
`Cn1c(=O)cnn(-c2ccc3nn(-c4cccnc4)cc3c2)c1=O` [Example 2, 4-Methyl-2-[2-(pyridin-3-yl)-2H-indazol-5-yl]-1,2,4-triazine-3,5(2H,4H)-dione]: in series [2], the pest or weed control at 500 g/ha was determined as 90%. Besides, the pest or weed control at 4 ppm in series [3] was found to be 100%. The results for the chromatographic logP in series [4] (setting [6]) and in series [4] (setting [7]) were 1.38 and 1.47, respectively.
Turning to `Cn1c(=O)n(C2CC2)c(=O)n1-c1ccc2nn(-c3cccnc3)cc2c1` [Example 3], in series [2], the pest or weed control at 500 g/ha came to 100%. Besides, in series [3], the pest or weed control at 4 ppm turned out to be 100%.
Take `Cn1c(=O)n(-c2ccccc2)c(=O)n1-c1ccc2nn(-c3cccnc3)cc2c1` [Example 4]: the pest or weed control at 500 g/ha in series [2] is 90%. Besides, in series [3], the pest or weed control at 4 ppm was 100%. Also, the “efficacy in % (beetle larvae killed)” value in series [5] turned out to be 83%.
Regarding `CCn1c(=O)n(C)n(-c2ccc3nn(-c4cccnc4)cc3c2)c1=O` [Example 5], the pest or weed control at 500 g/ha in series [2] was 90%. For the same compound, in series [3], the pest or weed control at 4 ppm worked out at 100%.
Regarding `CSCCn1c(=O)n(C)n(-c2ccc3nn(-c4cccnc4)cc3c2)c1=O` [Example 6], the pest or weed control at 500 g/ha in series [2] was 100%. Besides, in series [3], the pest or weed control at 4 ppm was 90%.
The matching figures for `Cn1c(=O)n(CC2CC2)c(=O)n1-c1ccc2nn(-c3cccnc3)cc2c1` [Example 7]: 90% and 100%.
On the same counts, the results for `Cn1c(=O)n(Cc2ccccc2)c(=O)n1-c1ccc2nn(-c3cccnc3)cc2c1` [Example 8] are 100% and 100%.
The matching figures for `Cn1c(=O)n(CC(F)(F)F)c(=O)n1-c1ccc2nn(-c3cccnc3)cc2c1` [Example 9]: 90% and 100%.
On to `Cn1c(=O)n(CC(F)(F)F)n(-c2ccc3nn(-c4cccnc4)cc3c2)c1=O` [Example 10], for which the pest or weed control at 4 ppm in series [3] was 100%.
Consider `Cn1c(=O)n(CC[S+](C)[O-])c(=O)n1-c1ccc2nn(-c3cccnc3)cc2c1` (stereo not shown) [Example 11], for which, in series [2], the pest or weed control at 500 g/ha turned out to be 90%. In addition, the pest or weed control at 4 ppm in series [3] came out at 100%.
On the same counts, the results for `COCCn1c(=O)n(C)n(-c2ccc3nn(-c4cccnc4)cc3c2)c1=O` [Example 12] are 90% and 100%.
On to `CC(C)n1c(=O)n(C)n(-c2ccc3nn(-c4cccnc4)cc3c2)c1=O` [Example 13], for which the pest or weed control at 4 ppm in series [3] worked out at 90%.
For the compound `Cn1c(=O)n(CC(F)F)c(=O)n1-c1ccc2nn(-c3cccnc3)cc2c1` [Example 14], the pest or weed control at 500 g/ha in series [2] worked out at 90%. Besides, in series [3], the pest or weed control at 4 ppm was found to be 100%.
Consider `Cn1c(=O)n(Cc2ccc(Cl)cc2)c(=O)n1-c1ccc2nn(-c3cccnc3)cc2c1` [Example 15], for which the pest or weed control at 4 ppm in series [3] was 100%.
On the same count and under the same terms, with `Cn1c(=O)n(Cc2ccccc2Cl)c(=O)n1-c1ccc2nn(-c3cccnc3)cc2c1` [Example 16] the figure was 90%.
`Cn1c(=O)n(Cc2cccc(Cl)c2)c(=O)n1-c1ccc2nn(-c3cccnc3)cc2c1` [Example 17]: in series [3], the pest or weed control at 4 ppm stood at 100%.
On to `CCn1c(=O)n(C)n(-c2cnc3nn(-c4cccnc4)cc3c2)c1=O` [Example 18], for which, in series [2], the pest or weed control at 500 g/ha is 100%. The pest or weed control at 4 ppm in series [3] is 100%.
`Cn1c(=O)n(C)n(-c2cnc3nn(-c4cccnc4)cc3c2)c1=O` [Example 19]: in series [2], the pest or weed control at 500 g/ha worked out at 100%. Also, the pest or weed control at 4 ppm in series [3] was 90%.
Consider `Cn1c(=O)n(C2CC2)c(=O)n1-c1cnc2nn(-c3cccnc3)cc2c1` [Example 20], for which, in series [2], the pest or weed control at 500 g/ha came to 90%. Further, in series [3], the pest or weed control at 4 ppm is 100%.
For `Cn1c(=O)n(CC2CC2)c(=O)n1-c1cnc2nn(-c3cccnc3)cc2c1` [Example 21], in series [2], the pest or weed control at 500 g/ha came to 100%. In series [3], the pest or weed control at 4 ppm turned out to be 100%.
As to `CC(C)n1c(=O)n(C)n(-c2cnc3nn(-c4cccnc4)cc3c2)c1=O` [Example 22], in series [3], the pest or weed control at 4 ppm was 100%.
As to `Cn1c(=O)n(Cc2ccc(Cl)nc2)c(=O)n1-c1ccc2nn(-c3cccnc3)cc2c1` [Example 23], the pest or weed control at 500 g/ha in series [2] was found to be 100%. Moreover, the pest or weed control at 4 ppm in series [3] stood at 100%.
Regarding `O=c1cnn(-c2ccc3nn(-c4cccnc4)cc3c2)c(=O)n1CC(F)(F)F` [Example 24], in series [3], the pest or weed control at 4 ppm amounted to 100%.
With `CCn1c(=O)cnn(-c2ccc3nn(-c4cccnc4)cc3c2)c1=O` [Example 25], the pest or weed control at 500 g/ha in series [2] is 100%. For the same compound, the pest or weed control at 4 ppm in series [3] came out at 100%. Moreover, in series [5], the “efficacy in % (beetle larvae killed)” value is 83%.
In the case of `O=c1cnn(-c2ccc3nn(-c4cccnc4)cc3c2)c(=O)n1CC1CC1` [Example 26], the pest or weed control at 500 g/ha in series [2] turned out to be 90%. Moreover, the pest or weed control at 4 ppm in series [3] came to 100%.
Turning to `O=c1cnn(-c2ccc3nn(-c4cccnc4)cc3c2)c(=O)n1Cc1ccccc1` [Example 27], the pest or weed control at 500 g/ha in series [2] is 90%. In addition, in series [3], the pest or weed control at 4 ppm was found to be 100%.
On to `O=c1cnn(-c2ccc3nn(-c4cccnc4)cc3c2)c(=O)n1-c1ccccc1` [Example 28], for which the pest or weed control at 4 ppm in series [3] worked out at 90%.
